Laboratory results: US20110135739A1, “Oral Formulations of a Hedgehog Pathway Inhibitor” (priority 2009, published 2011)

Legend:
[1] = system: human cell lines derived from patients with pancreatic cancer, medulloblastoma, lung cancer, multiple myeloma, acute lymphocytic leukemia, myelodysplatic …; conditions: described in WO 2008083252 and WO 2008083248; cited from earlier work
Hedgehog pathway = conditions: after single administration; cited from earlier work
[2] = system: preclinical in vivo models, such as medulloblastoma, small cell lung cancer, non-small cell lung cancer, skin cancer, head and neck cancer, and ovarian cancer; conditions: a number of preclinical in vivo models; cited from earlier work
[3] = Early dissolution experiments / dissolution attempted in various aqueous media; type: physicochemical
Excerpt: Gel formation is problematic from a formulation standpoint because it can result, for example, in irregular release of IPI-926 in vivo. Low rates of dissolution, and subsequent gel formation, persist even when small particle sizes (e.g., less than 150 micrometers) of IPI-926 are employed.
Without wishing to be bound to any particular theory, it was hypothesized that IPI-926 formed the solid agglomerate upon hydration. Accordingly, direct blend formulations were investigated.

Q: For `CC1=C2C[C@H]3[C@@H](CC[C@@H]4C[C@H](NS(C)(=O)=O)CC[C@@]43C)[C@@H]2CC[C@@]2(C1)O[C@@H]1C[C@H](C)CN[C@H]1[C@H]2C.Cl` [IPI-926], which “in vitro growth of human cell lines” value [1] is on record?
A: inhibit in vitro growth

Q: What about the “Hedgehog pathway inhibition in stromal cells” value (Hedgehog pathway) of the same compound?
A: rapid and sustained Hedgehog pathway inhibition

Q: And the tumor growth inhibition [2]?
A: tumor growth inhibition

Q: What about the “behaviour when dissolution is attempted” value [3] of the same compound?
A: gel, rather than dissolve
